{"source": "patent US20250018030A1", "about": "“PHARMACEUTICAL COMPOSITION FOR PROMOTING CANCER IMMUNOTHERAPY AND METHOD FOR PROMOTING CANCER IMMUNOTHERAPY” (China Medical University, priority 2023, published 2025)", "key": {"[1]": {"tested_on": "Tc1 cells", "assay": "Immunoblotting of PI3K/AKT/mTOR and STAT4 in Tc1 cells", "type": "cell-based, Mouse", "experimental": "The protein concentrations of the total cell lysate or the extracted histones were determined by a Bradford assay (Bio-Rad Laboratories). Immunoblot analysis was performed with 10% sodium dodecyl sulfate-polyacrylamide gel electrophoresis, followed by overnight incubation with primary antibodies (1:1000 dilution) and incubation with horseradish peroxidase-conjugated secondary antibodies (1:5000 dilution; GeneTex). The polyvinylidene difluoride membranes were probed with antibodies against UCP2, pPI3K/PI3K, pAKT/AKT, pmTOR/mTOR, pSTAT1/STAT1, pSTAT4/STAT4, and H3K9Ac, which were purchased from Cell Signaling Technology or Genetex. Actin or Lamin B1 (Merck-Millipore) was used as the loading control. Signals were detected using an ECL solution (GE) and optical density quantified using ImageJ software."}, "[2]": {"tested_on": "Tc1 cells", "assay": "Intracellular cytokine staining / flow cytometry of genipin-treated skewed Tc1 cells", "type": "cell-based, Mouse", "experimental": "Mouse lymph nodes and spleens were harvested, and naïve CD4 or CD8 T cells isolated via magnetic bead separation (STEMCELL Technologies) and activated in α-CD3 (10 μg/ml) and α-CD28 (1 μg/ml) pre-coated 96-well plates. Skewing conditions were as follows: Th1 cells/Tc1 cells ([…] 10 μ/ml α-IL-4), Th2 cells/Tc2 cells (20 ng/ml IL-4 and 10 μ/ml α-IFN-γ), Th17 cells/Tc17 cells (20 ng/ml IL-6, 1.25 ng/ml […], 20 ng/ml IL-1β, 20 ng/ml IL-23, 10 μg/ml α-IFN-γ and 10 μg/ml α-IL-4), and Treg cells (5 ng/ml TGF-β, 10 μg/ml α-IFN-γ and 10 μg/ml α-IL-4) in the indicated medium. Cells were cultured for 4-5 days followed by treatment with genipin (3.125 μM, 6.25 μM, 12.5 μM) or DMSO for 12-16 hours.\n(§1) Monoclonal antibodies were purchased from BD Biosciences or eBioscience. For intracellular cytokine staining (ICS), cells were first restimulated by PMA/ionomycin for 5 hours in the presence of GolgiStop (BD Biosciences), followed by surface epitope staining markers before being fixed/permeabilized (BD Cytofix/Cytoperm™) and stained with antibodies targeting intracellular antigens. Cells were finally fixed with 1.5% formaldehyde for 10 minutes at room temperature and analyzed on a FACSVerse flow cytometer (BD Bioscience). Data were analyzed using FlowJo software (Tree Star Inc.)."}, "[3]": {"tested_on": "Pan18 cells", "assay": "Orthotopic PDAC tumor model (Pan18 cells injected in pancreas)", "type": "in vivo, mice", "conditions": "for Survival, bioluminescent tumor growth and tumor weight: FIG. 5H-5J", "experimental": "as §1\n(§2) For Pan18-subcutaneous implantation, 5×10^5 Pan18 cells were administered to wild-type (WT) or IL-17^−/− mice. Genipin (5 mg/kg, 10 mg/kg, or 30 mg/kg, i.p., every two days) was administered to Pan18-bearing mice for 3 weeks. For 3036-subcutanous implantation, 2×10^5 3036 cells were administered to WT mice. Genipin (10 mg/kg, i.p., every two days) and recombinant anti-IL-17 receptor antibody (αIL-17RA) (1 mg/kg, i.v., once a week) were administered to 3036-bearing mice for 3 weeks. Tumor volumes were evaluated every 2 days. For the orthotopic tumor modelling, mice pancreases were injected with 2×10^5 Pan18 cells and monitored for tumor growth weekly using IVIS kinetics imaging system (Caliper Life-Sciences). Genipin (10 mg/kg, i.p., every two days) or αIL-17RA (1 mg/kg, i.v., once a week) was administered 1 week after tumor implantation. Mice were sacrificed 35 days after tumor induction and tumors weighed. For spontaneous pancreatic cancer model, Cre-dependent conditional knockin mutations of KrasG12D Kras^+/LSLG12D mice (B6; 129-Kras2) were obtained from the Mouse Models of Human Cancer Consortium. Elas-CreERT; Kras^+/LSLG12D mice was generated by breeding Kras^+/LSLG12D mice with Elas-CreER mice obtained from the Level Transgenic Center. To induce the expression of Kras^+/LSLG12D in acinar cells, 5-week-old Elas-CreERT; Kras^+/LSLG12D male mice were injected with 100 μl of tamoxifen (20 mg/ml, i.p., three times per week) for 1 week. To induce chronic inflammation and tumors, 100 μl of cerulein (50 μg/ml, i.p., six times per week) (BACHEM) was given to the mice for 3 weeks. Then, the mice were injected with genipin (10 mg/kg, i.p., every two days) and αIL-17RA (1 mg/kg, i.v., once a week) until the end of the experiment, and overall survival was monitored. For genetically CD4/CD8-specific UCP2 deletion tumor modelling, we generated CD4Cre×UCP2^f/f mice by crossing loxP-UCP2-loxP mice with CD4Cre mice. CD4Cre×UCP2^f/f, WT, and loxP control mice underwent subcutaneous implantation of 2×10^5 Pan18 cells, followed by treatment with αIL-17RA (1 mg/kg, i.v., once a week) for 3 weeks. For melanoma modelling, IL-17/-and WT mice underwent subcutaneous implantation of 5×10^5 B16F10 cells, followed by treatment with genipin (10 mg/kg, i.p., every two days) for 3 weeks. For CD8 depletion tumor modelling, IL-17^−/− mice underwent subcutaneous implantation of 2×10^5 Pan18 cells, followed by treatment with genipin (10 mg/kg, i.p., every two days) and CD8 neutralizing antibody (5 mg/kg, i.v., once a week) for 3 weeks. Tumor volumes were evaluated every 3 days."}, "[4]": {"tested_on": "B16F10 cells", "assay": "Melanoma model, B16F10 subcutaneous implantation", "type": "in vivo", "conditions": "IL-17−/− mice", "experimental": "as §1, §2"}}}
{"smiles": "COC(=O)C1=CO[C@@H](O)[C@@H]2C(CO)=CC[C@H]12", "note": "[genipin]", "values": [{"measurement": "STAT4 levels / activation", "setting": "[1]; genipin 12 hours, FIG. 2Q", "result": "STAT4 activation"}, {"measurement": "Expression of mTOR and its upstream kinases PI3K and AKT", "setting": "[1]; genipin-treated Tc1 cells", "result": "increased"}, {"measurement": "IL-12R expression in Tc1 cells", "setting": "[2]; genipin 12.5 μM, FIG. 2O-2P", "result": "increased IL-12R expression"}, {"measurement": "IFN-γ production in Tc1 cells", "setting": "[2]; genipin 3.125, 6.25, 12.5 μM, 12-16 hours, FIG. 1C-1D", "result": "promoted IFN-γ"}, {"measurement": "T-bet expression in IFN-γ+CD8+ T cell population of Tc1 cells", "setting": "[2]; genipin-treated Tc1 cells, FIG. 1J", "result": "elevated the expression of T-bet"}, {"measurement": "Survival, bioluminescent tumor growth and tumor weight", "setting": "[3]; IL-17−/− mice, genipin 10 mg/kg i.p. every two days, 3 weeks", "result": "significant benefit"}, {"measurement": "Tumor-infiltrating population of Tc1 cells", "setting": "[3]; IL-17−/− mice, genipin 10 mg/kg, FIG. 5K", "result": "increased"}, {"measurement": "Tumor-infiltrating population of Th1 cells", "setting": "[3]; IL-17−/− mice, genipin 10 mg/kg, FIG. 5L", "result": "increased"}, {"measurement": "Tumor-infiltrating population of MDSC", "setting": "[3]; IL-17−/− mice, genipin 10 mg/kg, FIG. 5N", "result": "increased"}, {"measurement": "Survival, bioluminescent tumor growth and tumor weight", "setting": "[3]; WT mice, genipin 10 mg/kg alone (singular UCP2 targeting)", "result": "no impact"}, {"measurement": "Tumor growth (tumor volume)", "setting": "[4]; genipin 10 mg/kg i.p. every two days, 3 weeks, FIG. 7B", "result": "additional effect on the inhibition of tumor growth"}, {"measurement": "Population of Tc1 cells", "setting": "[4]; genipin 10 mg/kg, FIG. 7C", "result": "increased the expansion of Tc1 cells"}, {"measurement": "Population of Th1 cells", "setting": "[4]; genipin 10 mg/kg, FIG. 7D", "result": "not significantly impacting"}, {"measurement": "Population of Treg cells", "setting": "[4]; genipin 10 mg/kg, FIG. 7E", "result": "not significantly impacting"}, {"measurement": "Prevalence of MDSC", "setting": "[4]; genipin 10 mg/kg, FIG. 7F", "result": "decreasing prevalence of MDSC"}]}
